PMC8074792, “An ω-3, but Not an ω-6 Polyunsaturated Fatty Acid Decreases Membrane Dipole Potential and Stimulates Endo-Lysosomal Escape of Penetratin” (Frontiers in Cell and Developmental Biology, 2021)

Key:
JY cells [1] = experiment: Membrane dipole potential, di-8-ANEPPS excitation ratio, spectrofluorometry; type: cell-based, human; settings: agent 20-200 μM, 10 min, room temperature, 0.05% Pluronic F-127, measured at 37°C, mean of 5 experiments
Method: (§1) The human acute monocytic leukemia-derived cell line THP-1 and the human Epstein-Barr virus (EBV) transformed lymphoblastoid cell line JY were obtained from the American Type Culture Collection (Manassas, VA, United States) and cultivated according to their specifications. […] As controls, cells were treated with the corresponding amounts of native MβCD complexes not containing sterols. To study the effects of fatty acids, cells were incubated for 48 h in medium supplemented with saturated stearic acid (SA, Sigma Aldrich), ω-3 polyunsaturated α-linolenic acid (ALA, Sigma Aldrich) or ω-6 polyunsaturated γ-linolenic acid (GLA, Sigma Aldrich) at various concentrations ranging from 12.5 to 50 μM. […] After washing, cells were kept on ice and samples were subsequently warmed to 37°C right before measurements carried out with a Fluorolog-3 spectrofluorometer (Horiba Jobin Yvon, Edison, NJ, United States). During measurements, the cuvette holder was kept at 37°C using a circulating water bath. Excitation spectra were recorded between 380 and 550 nm with the detected emission wavelength set to 660 nm in order to minimize effects of possible changes in membrane fluidity ([Clarke and Kane, 1997]). The ratio of fluorescence intensities integrated between excitation wavelengths 410–440 nm and 490–520 nm was calculated for each sample, which positively correlates with the magnitude of DP ([Clarke and Kane, 1997]; [Kovacs et al., 2017]; [Batta et al., 2020]).

THP-1 cells [2] = experiment: as above; type: cell-based, human; settings: agent 20-200 μM, 10 min, room temperature, 0.05% Pluronic F-127, measured at 37°C, mean of 5 experiments
Method: as §1

JY cells [3] = experiment: Membrane dipole potential, F66 emission ratio, flow cytometry; type: cell-based, human; settings: agent 20-200 μM, 10 min, 0.05% Pluronic F-127, at least 20,000 living cells per sample, n = 5
Method: (§2) The human acute monocytic leukemia-derived cell line THP-1 and the human Epstein-Barr virus (EBV) transformed lymphoblastoid cell line JY were obtained from the American Type Culture Collection (Manassas, VA, United States) and cultivated according to their specifications. […] As controls, cells were treated with the corresponding amounts of native MβCD complexes not containing sterols. To study the effects of fatty acids, cells were incubated for 48 h in medium supplemented with saturated stearic acid (SA, Sigma Aldrich), ω-3 polyunsaturated α-linolenic acid (ALA, Sigma Aldrich) or ω-6 polyunsaturated γ-linolenic acid (GLA, Sigma Aldrich) at various concentrations ranging from 12.5 to 50 μM. […] After washing, the fluorescence intensities of cells were determined with a FACS Aria III flow cytometer (Becton Dickinson, Mountain View, CA, United States) at 37°C. […] Data analysis was carried out in FCS Express (De Novo Software, Los Angeles, CA, United States). The ratio of emitted intensities in the two wavelength ranges (N^∗/T^∗) was determined for each cell and the average value was calculated for each sample from the data of living cells gated on FSC-SSC dot plots. The value of N^∗/T^∗ ratio negatively correlates with the magnitude of DP ([Kovacs et al., 2017]).

THP-1 cells [4] = experiment: as above; type: cell-based, human; settings: agent 20-200 μM, 10 min, 0.05% Pluronic F-127, at least 20,000 living cells per sample, n = 5
Method: as §2

[5] = parameters: method as in Batta et al., 2020; settings: lowering DP with the agent; ref Batta et al., 2020; cited from earlier work
Text: One of the most widely studied cellular functions influenced by the magnitude of DP is the cellular binding and uptake of certain substances including drugs ([Asawakarn et al., 2001]), β-amyloid ([Hertel et al., 1997]) and other peptides ([Cladera and O’Shea, 1998]; [Zhan and Lazaridis, 2012]). […] Although cell-penetrating peptides are promising therapeutic tools for de ...

For `O=C(CCc1ccc(O)cc1)c1c(O)cc(O)cc1O` [phloretin, 3-(4-hydroxyphenyl)-1-(2,4,6-trihydroxyphenyl) propan-1-one], the “Rexc, di-8-ANEPPS (excitation ratio 410-440 nm / 490-520 nm, positively correlates with DP)” value (JY cells [1]) was “dose-dependently decreased”, the “Rexc, di-8-ANEPPS (excitation ratio 410-440 nm / 490-520 nm, positively correlates with DP)” value (THP-1 cells [2]) was “dose-dependently decreased” and the “Rem, F66 (emission ratio N*/T*, 470-490 nm / 564-606 nm, negatively correlates with DP)” value (JY cells [3]) was “increased Rem, F66 values implying lower magnitudes of DP, this change did not reach the level of significance in one of the cell lines”. For the same compound, the “Rem, F66 (emission ratio N*/T*, 470-490 nm / 564-606 nm, negatively correlates with DP)” value (THP-1 cells [4]) was “increased Rem, F66 values implying lower magnitudes of DP, this change did not reach the level of significance in one of the cell lines” and the “cellular uptake and endo-lysosomal escape of penetratin” value [5] was “increased”.
